Test system: MDA-MB-231 cells
Assay: In vitro cytotoxicity, MTT assay
Conditions: various concentrations of PTX, 72 h

`CC(=O)O[C@H]1C(=O)[C@@]2(C)[C@H]([C@H](OC(=O)c3ccccc3)[C@]3(O)C[C@H](OC(=O)[C@H](O)[C@@H](NC(=O)c4ccccc4)c4ccccc4)C(C)=C1C3(C)C)[C@]1(OC(C)=O)CO[C@@H]1C[C@@H]2O` [PTX, Paclitaxel] was tested, and the Cytotoxicity was “exhibited cytotoxicity on MDA-MB-231 cells in a dose-dependent manner”.
